Values of other authors in patent publication US6107296A, “Neuroprotective use of triazolo-pyridazine derivatives” (Merck Sharp & Dohme, Ltd., priority 1997, dated 2000).

Columns and labels:
[1] = test system: GABAA receptor subtypes containing the α1 and α3 or α5 subunits
[2] = test system: GABAA receptor subtypes containing the α1 and α3 or α5 subunits; settings: partial agonist at each of the α1, α3 or α5 containing receptors
[3] = test system: selectively vulnerable neuronal populations in the gerbil forebrain; settings: gerbil forebrain ischemia model

C[C@@H]1CN(C(=O)c2cc3c(C(=O)OC(C)(C)C)ncn3c3ccc(Cl)cc23)C[C@H](C)N1 [PNU-101017]
affinity for GABAA receptor subtypes [1]: high affinity | intrinsic activity relative to the full agonist diazepam [2]: approximately 50% | neuronal survival [3]: dose-related increase in neuronal survival
